Read-outs that look alike come from different tables or passages of the source. Starred links: 1 amine or outer side, 2 acyl side, 3 side chain; linkers in the order of their positions; H or OH if unused. Positions of bridges follow the written chain, without caps; N, C: chain ends. Residues, ends and D or L forms follow the SMILES beside them. Chains are numbered I, II in the order given. X1 = C[C@@H](CNC(=O)N[C@@H](C)CNC(=O)[*:2])NC(=O)NC[C@H](C)N[*:1]; X5 = C[C@@H](CNC(=O)N[C@@H](C)CNC(=O)[*:1])NC(=O)NC[C@H](C)N[*:2]
What was measured:
mouse GLP-1 receptor [1] = target: T1, mouse GLP-1 receptor (Mus musculus, UniProt O35659); assay: cell-based; conditions: for Emax: 14: experiment 1
T1 sequence (O35659 22-463): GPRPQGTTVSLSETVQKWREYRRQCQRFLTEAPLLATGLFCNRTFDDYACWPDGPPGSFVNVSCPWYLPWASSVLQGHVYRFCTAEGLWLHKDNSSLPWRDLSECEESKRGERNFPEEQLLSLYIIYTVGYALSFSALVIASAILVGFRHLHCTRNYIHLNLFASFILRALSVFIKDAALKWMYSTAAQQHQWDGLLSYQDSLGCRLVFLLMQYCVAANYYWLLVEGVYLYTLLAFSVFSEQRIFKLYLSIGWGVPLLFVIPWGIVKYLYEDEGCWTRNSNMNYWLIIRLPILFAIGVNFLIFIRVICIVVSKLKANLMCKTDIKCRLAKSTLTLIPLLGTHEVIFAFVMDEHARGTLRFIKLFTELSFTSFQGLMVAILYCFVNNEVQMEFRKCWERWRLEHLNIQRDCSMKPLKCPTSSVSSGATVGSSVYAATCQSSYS

mouse GLP-1 receptor [2] = target: T1, mouse GLP-1 receptor; conditions: for Potency (%), percentage of potency compare to GLP-1-G^2: cAMP production, from EC50
[3] = read-out: Top (best-fit value), variable slope four-parameter fit, unconstrained
[4] = read-out: Top (best-fit value), fit with BOTTOM = 0%

| EC50 (mouse GLP-1 receptor [1]) [nM] | Emax (mouse GLP-1 receptor [1]; [3]) [%] | LogEC50 (best-fit value) (mouse GLP-1 receptor [2]) | Potency (%), percentage of potency compare to GLP-1-G^2 (mouse GLP-1 receptor [2]) [%] | Emax (mouse GLP-1 receptor [1]; [4]) [%] | Compound |
| --- | --- | --- | --- | --- | --- |
| 353 | 73.4 | -6.452 | 0.07 | – | CC[C@H](C)[C@H](NC(=O)[C@H](Cc1ccccc1)NC(=O)[C@H](CCC(=O)O)NC(=O)[C@H](CCCCN)NC(=O)[C@H](C)NC(=O)[C@H](C)NC(=O)NC[C@H](C)NC(=O)NC[C@H](C)NC(=O)NC[C@H](C)NC(=O)[C@H](Cc1ccc(O)cc1)NC(=O)[C@H](CO)NC(=O)[C@H](CO)NC(=O)[C@@H](NC(=O)[C@H](CC(=O)O)NC(=O)[C@H](CO)NC(=O)[C@@H](NC(=O)[C@H](Cc1ccccc1)NC(=O)[C@@H](NC(=O)CNC(=O)[C@H](CCC(=O)O)NC(=O)CNC(=O)[C@@H](N)Cc1c[nH]cn1)[C@@H](C)O)[C@@H](C)O)C(C)C)C(=O)N[C@@H](C)C(=O)N[C@@H](Cc1c[nH]c2ccccc12)C(=O)N[C@@H](CC(C)C)C(=O)N[C@H](C(=O)N[C@@H](CCCCN)C(=O)NCC(=O)N[C@@H](CCCNC(=N)N)C(=O)NCC(N)=O)C(C)C [compound 8, GG2[A^uA^uA^u]^14-17] (I: AAKEFIAWLVKGRG-NH2 / II: H-HGEGTFTSDVSSY; linker I:N-II:C via X5) |
| > 10000 | 92.7 | – | – | ~538 | CC[C@H](C)[C@H](NC(=O)NC[C@H](C)NC(=O)NC[C@H](C)NC(=O)NC[C@H](C)NC(=O)[C@H](C)NC(=O)[C@H](CCC(N)=O)NC(=O)CNC(=O)[C@H](CCC(=O)O)NC(=O)[C@H](CC(C)C)NC(=O)[C@H](Cc1ccc(O)cc1)NC(=O)[C@H](CO)NC(=O)[C@H](CO)NC(=O)[C@@H](NC(=O)[C@H](CC(=O)O)NC(=O)[C@H](CO)NC(=O)[C@@H](NC(=O)[C@H](Cc1ccccc1)NC(=O)[C@@H](NC(=O)CNC(=O)[C@H](CCC(=O)O)NC(=O)CNC(=O)[C@@H](N)Cc1c[nH]cn1)[C@@H](C)O)[C@@H](C)O)C(C)C)C(=O)N[C@@H](C)C(=O)N[C@@H](Cc1c[nH]c2ccccc12)C(=O)N[C@@H](CC(C)C)C(=O)N[C@H](C(=O)N[C@@H](CCCCN)C(=O)NCC(=O)N[C@@H](CCCNC(=N)N)C(=O)NCC(N)=O)C(C)C [compound 15, GG2[A^uA^uA^u]^19-22] (I: H-HGEGTFTSDVSSYLEGQA / II: IAWLVKGRG-NH2; linker I:C-II:N via X1) |
| 97 | 81.8 | -7.014 | 0.2 | – | CC[C@H](C)[C@H](NC(=O)[C@H](Cc1ccccc1)NC(=O)[C@H](CCC(=O)O)NC(=O)[C@H](CCCCN)NC(=O)[C@H](C)NC(=O)[C@H](C)NC(=O)[C@H](CCC(N)=O)NC(=O)CNC(=O)[C@H](CCC(=O)O)NC(=O)NC[C@H](C)NC(=O)NC[C@H](C)NC(=O)NC[C@H](C)NC(=O)[C@@H](NC(=O)[C@H](CC(=O)O)NC(=O)[C@H](CO)NC(=O)[C@@H](NC(=O)[C@H](Cc1ccccc1)NC(=O)[C@@H](NC(=O)CNC(=O)[C@H](CCC(=O)O)NC(=O)CNC(=O)[C@@H](N)Cc1c[nH]cn1)[C@@H](C)O)[C@@H](C)O)C(C)C)C(=O)N[C@@H](C)C(=O)N[C@@H](Cc1c[nH]c2ccccc12)C(=O)N[C@@H](CC(C)C)C(=O)N[C@H](C(=O)N[C@@H](CCCCN)C(=O)NCC(=O)N[C@@H](CCCNC(=N)N)C(=O)NCC(N)=O)C(C)C [compound 4, GG2[A^uA^uA^u]^11-14] |
| > 10000 | 6.19 | – | < 0.01 | 6.08 | CC[C@H](C)[C@H](NC(=O)[C@H](Cc1ccccc1)NC(=O)[C@H](CCC(=O)O)NC(=O)[C@H](CCCCN)NC(=O)[C@H](C)NC(=O)[C@H](C)NC(=O)[C@H](CCC(N)=O)NC(=O)CNC(=O)NC[C@H](C)NC(=O)NC[C@H](C)NC(=O)NC[C@H](C)NC(=O)[C@H](CO)NC(=O)[C@@H](NC(=O)[C@H](CC(=O)O)NC(=O)[C@H](CO)NC(=O)[C@@H](NC(=O)[C@H](Cc1ccccc1)NC(=O)[C@@H](NC(=O)CNC(=O)[C@H](CCC(=O)O)NC(=O)CNC(=O)[C@@H](N)Cc1c[nH]cn1)[C@@H](C)O)[C@@H](C)O)C(C)C)C(=O)N[C@@H](C)C(=O)N[C@@H](Cc1c[nH]c2ccccc12)C(=O)N[C@@H](CC(C)C)C(=O)N[C@H](C(=O)N[C@@H](CCCCN)C(=O)NCC(=O)N[C@@H](CCCNC(=N)N)C(=O)NCC(N)=O)C(C)C [compound 6, GG2[A^uA^uA^u]^12-15] |
| > 10000 | ~208 | – | – | – | CC[C@H](C)[C@H](NC(=O)[C@H](Cc1ccccc1)NC(=O)[C@H](CCC(=O)O)NC(=O)[C@H](CCCCN)NC(=O)[C@H](C)NC(=O)[C@H](C)NC(=O)[C@H](CCC(N)=O)NC(=O)NC[C@H](C)NC(=O)NC[C@H](C)NC(=O)NC[C@H](C)NC(=O)[C@H](CO)NC(=O)[C@H](CO)NC(=O)[C@@H](NC(=O)[C@H](CC(=O)O)NC(=O)[C@H](CO)NC(=O)[C@@H](NC(=O)[C@H](Cc1ccccc1)NC(=O)[C@@H](NC(=O)CNC(=O)[C@H](CCC(=O)O)NC(=O)CNC(=O)[C@@H](N)Cc1c[nH]cn1)[C@@H](C)O)[C@@H](C)O)C(C)C)C(=O)N[C@@H](C)C(=O)N[C@@H](Cc1c[nH]c2ccccc12)C(=O)N[C@@H](CC(C)C)C(=O)N[C@H](C(=O)N[C@@H](CCCCN)C(=O)NCC(=O)N[C@@H](CCCNC(=N)N)C(=O)NCC(N)=O)C(C)C [compound 7, GG2[A^uA^uA^u]^13-16] (I: QAAKEFIAWLVKGRG-NH2 / II: H-HGEGTFTSDVSS; linker I:N-II:C via X5) |
| 240 | 65 | -6.619 | 0.1 | – | CC[C@H](C)[C@H](NC(=O)[C@H](Cc1ccccc1)NC(=O)[C@H](CCC(=O)O)NC(=O)[C@H](CCCCN)NC(=O)NC[C@H](C)NC(=O)NC[C@H](C)NC(=O)NC[C@H](C)NC(=O)[C@H](CCC(=O)O)NC(=O)[C@H](CC(C)C)NC(=O)[C@H](Cc1ccc(O)cc1)NC(=O)[C@H](CO)NC(=O)[C@H](CO)NC(=O)[C@@H](NC(=O)[C@H](CC(=O)O)NC(=O)[C@H](CO)NC(=O)[C@@H](NC(=O)[C@H](Cc1ccccc1)NC(=O)[C@@H](NC(=O)CNC(=O)[C@H](CCC(=O)O)NC(=O)CNC(=O)[C@@H](N)Cc1c[nH]cn1)[C@@H](C)O)[C@@H](C)O)C(C)C)C(=O)N[C@@H](C)C(=O)N[C@@H](Cc1c[nH]c2ccccc12)C(=O)N[C@@H](CC(C)C)C(=O)N[C@H](C(=O)N[C@@H](CCCCN)C(=O)NCC(=O)N[C@@H](CCCNC(=N)N)C(=O)NCC(N)=O)C(C)C [compound 12, GG2[A^uA^uA^u]^16-19] |

| Compound | EC50 (mouse GLP-1 receptor [1]) [nM] | Emax (mouse GLP-1 receptor [1]; [3]) [%] | LogEC50 (best-fit value) (mouse GLP-1 receptor [2]) | Potency (%), percentage of potency compare to GLP-1-G^2 (mouse GLP-1 receptor [2]) [%] | Emax (mouse GLP-1 receptor [1]; [4]) [%] |
| --- | --- | --- | --- | --- | --- |
| CC[C@H](C)[C@H](NC(=O)[C@H](Cc1ccccc1)NC(=O)[C@H](CCC(=O)O)NC(=O)[C@H](CCCCN)NC(=O)[C@H](C)NC(=O)[C@H](C)NC(=O)[C@H](CCC(N)=O)NC(=O)CNC(=O)[C@H](CCC(=O)O)NC(=O)[C@H](CC(C)C)NC(=O)NC[C@H](C)NC(=O)NC[C@H](C)NC(=O)NC[C@H](C)NC(=O)[C@H](CC(=O)O)NC(=O)[C@H](CO)NC(=O)[C@@H](NC(=O)[C@H](Cc1ccccc1)NC(=O)[C@@H](NC(=O)CNC(=O)[C@H](CCC(=O)O)NC(=O)CNC(=O)[C@@H](N)Cc1c[nH]cn1)[C@@H](C)O)[C@@H](C)O)C(=O)N[C@@H](C)C(=O)N[C@@H](Cc1c[nH]c2ccccc12)C(=O)N[C@@H](CC(C)C)C(=O)N[C@H](C(=O)N[C@@H](CCCCN)C(=O)NCC(=O)N[C@@H](CCCNC(=N)N)C(=O)NCC(N)=O)C(C)C [compound 3, GG2[A^uA^uA^u]^10-13] | 650 | 91.6 | -6.187 | 0.04 | – |
